Source: ChEMBL document CHEMBL1201862, “PubChem BioAssay data set” (2004)
Calls of active or inactive are those of the source.

Legend:
Nonstructural protein 1 = Nonstructural protein 1 (Influenza A virus, UniProt Q194T2); type: functional, Influenza A virus (A/California/07/2009(H1N1))
[1] = human group III sPLA2 inhibitors, dose response, biochemical, QFRET, IC50 (AID 743457);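 note: green fluorescence rise as the enzyme cleaves BODIPY PC-A2 in liposomes; potency for inhibition of the enzyme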
[2] = inhibitors of firefly luciferase expression or activity, dose response, H4 neuroglioma cells, luminescence (AID 1990); type: functional, cell-based
[3] = system: Streptococcus sp. 'group A'; test: growth inhibition of control SK(-) GAS strain, dose response, counter-screen for streptokinase expression inhibitor project, luminescence, kanamycin, BacTiterGlo, confirmation (AID 1900); type: functional, organism-based
BJ [4] = test: cytotoxicity toward BJ-TERT fibroblasts, dose response, cell-based, RAS-independent, luminescence (AID 1933); type: functional; conditions: Homo sapiens
[5] = Luminescence Cell-Based Dose Response HTS to Identify Inhibitors of 5'UTR Stem-Loop Driven Prion Protein mRNA Translation in H4 Neuroglioblastoma Cells. [Related pubchem assays: 1827 (Project Summary), 1813 (Primary HTS)]; type: functional
[6] = inhibitors of SNCA 5'UTR-driven reporter translation, confirmation, H4 neuroglioma cells, luminescence (AID 1988); type: functional, cell-based
Streptokinase A = biological target: T1, Streptokinase A (Streptococcus pyogenes serotype M1, UniProt P10520); test: S. pyogenes streptokinase expression inhibitors, potency, dose response, plasminogen activation absorbance, OD405 (AID 1914); type: functional, Streptococcus pyogenes M1 GAS;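 note: secreted streptokinase activity via plasminogen activation per viability signal from cell pellet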
T1 sequence (P10520 whole entry): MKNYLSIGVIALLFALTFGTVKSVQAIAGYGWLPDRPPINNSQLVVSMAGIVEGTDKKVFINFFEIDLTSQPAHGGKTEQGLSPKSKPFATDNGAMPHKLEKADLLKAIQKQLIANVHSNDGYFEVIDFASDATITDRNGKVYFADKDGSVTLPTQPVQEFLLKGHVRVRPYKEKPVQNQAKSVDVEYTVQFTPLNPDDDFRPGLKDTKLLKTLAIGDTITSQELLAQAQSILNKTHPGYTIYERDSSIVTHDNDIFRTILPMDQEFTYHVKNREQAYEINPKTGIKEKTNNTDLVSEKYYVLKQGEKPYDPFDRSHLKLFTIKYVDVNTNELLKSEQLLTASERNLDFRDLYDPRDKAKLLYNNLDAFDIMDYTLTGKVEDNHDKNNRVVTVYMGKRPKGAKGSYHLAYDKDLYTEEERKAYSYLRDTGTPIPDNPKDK

BJ [7] = test: cells; type: functional, cell-based; conditions: Homo sapiens
BJ [8] = test: cytotoxicity toward BJ-TERT-LT-ST fibroblasts, dose response, cell-based, RAS-independent, luminescence (AID 1935); type: functional; conditions: Homo sapiens;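 note: BJ fibroblasts immortalized with TERT plus LT and ST oncogenes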
[9] = cytotoxicity toward DRD oncogenic fibroblasts, dose response, cell-based, non-viral oncogenic, luminescence (AID 1934); type: functional; conditions: Homo sapiens
Streptococcus = test: Group A Streptococcus viability loss, dose response, counter-screen for streptokinase expression inhibitor project, luminescence, BacTiterGlo (AID 1915); type: functional, organism-based;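 note: potency for reduction of bacterial viability or growth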
[10] = biological target: T2, Replicative DNA helicase DnaB (Mycobacterium tuberculosis, UniProt P9WMR3); test: DnaB intein splicing inhibitors, dose response, biochemical, cell-free fluorescence (AID 449749); type: functional
T2 sequence (P9WMR3 whole entry): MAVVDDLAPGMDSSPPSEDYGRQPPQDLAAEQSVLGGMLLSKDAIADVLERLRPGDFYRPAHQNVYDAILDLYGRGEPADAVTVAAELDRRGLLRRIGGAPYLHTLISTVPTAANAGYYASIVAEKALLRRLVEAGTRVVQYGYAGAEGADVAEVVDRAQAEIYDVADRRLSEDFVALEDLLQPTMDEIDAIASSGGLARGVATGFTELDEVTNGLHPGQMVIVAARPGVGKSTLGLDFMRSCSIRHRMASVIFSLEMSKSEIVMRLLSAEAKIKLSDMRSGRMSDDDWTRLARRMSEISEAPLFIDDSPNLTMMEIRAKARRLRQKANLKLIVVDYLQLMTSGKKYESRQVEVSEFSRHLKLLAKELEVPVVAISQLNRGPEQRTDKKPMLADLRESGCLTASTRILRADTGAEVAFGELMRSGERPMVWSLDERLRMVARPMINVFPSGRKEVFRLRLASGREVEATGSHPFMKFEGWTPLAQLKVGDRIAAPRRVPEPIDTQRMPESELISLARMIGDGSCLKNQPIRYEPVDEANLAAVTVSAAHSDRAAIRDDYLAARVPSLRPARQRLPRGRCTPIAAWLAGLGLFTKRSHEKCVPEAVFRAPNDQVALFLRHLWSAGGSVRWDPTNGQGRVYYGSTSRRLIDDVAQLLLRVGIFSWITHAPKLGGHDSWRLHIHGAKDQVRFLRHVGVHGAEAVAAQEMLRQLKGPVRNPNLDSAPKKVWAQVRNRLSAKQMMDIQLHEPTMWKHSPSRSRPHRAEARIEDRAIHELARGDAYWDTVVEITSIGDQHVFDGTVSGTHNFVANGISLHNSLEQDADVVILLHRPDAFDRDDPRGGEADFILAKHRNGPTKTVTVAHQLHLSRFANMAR

Protein RecA = biological target: T3, Protein RecA (Mycobacterium tuberculosis, UniProt P9WHJ3); test: Fluorescence Cell-Free Homogeneous Dose Retest to Identify Inhibitors of RecA-Intein Splicing Activity. [Related pubchem assays (depositor defined):AID2097, AID2223, AID489010, AID492950]; type: functional
T3 sequence (P9WHJ3 whole entry): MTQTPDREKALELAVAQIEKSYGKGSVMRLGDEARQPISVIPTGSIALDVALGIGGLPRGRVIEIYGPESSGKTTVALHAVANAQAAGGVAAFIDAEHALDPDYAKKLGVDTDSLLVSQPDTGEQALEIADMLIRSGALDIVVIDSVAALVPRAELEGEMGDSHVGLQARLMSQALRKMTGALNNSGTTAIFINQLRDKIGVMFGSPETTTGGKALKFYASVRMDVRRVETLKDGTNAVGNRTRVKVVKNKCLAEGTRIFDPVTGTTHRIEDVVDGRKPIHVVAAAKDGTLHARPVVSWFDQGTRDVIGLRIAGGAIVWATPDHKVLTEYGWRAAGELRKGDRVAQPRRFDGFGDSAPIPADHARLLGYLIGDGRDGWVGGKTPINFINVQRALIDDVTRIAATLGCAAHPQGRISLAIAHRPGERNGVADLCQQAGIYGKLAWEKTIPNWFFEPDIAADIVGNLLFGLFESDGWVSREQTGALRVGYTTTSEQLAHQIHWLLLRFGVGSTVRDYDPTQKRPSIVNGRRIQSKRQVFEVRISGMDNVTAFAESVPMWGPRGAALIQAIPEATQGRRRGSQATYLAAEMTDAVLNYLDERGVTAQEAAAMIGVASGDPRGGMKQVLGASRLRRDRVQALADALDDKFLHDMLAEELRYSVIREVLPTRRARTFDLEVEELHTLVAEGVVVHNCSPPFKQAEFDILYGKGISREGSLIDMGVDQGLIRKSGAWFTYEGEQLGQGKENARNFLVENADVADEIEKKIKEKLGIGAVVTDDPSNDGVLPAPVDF

INS1 = test: beta cell apoptosis inhibitors, cytokine rescue, dose response, luminescence, retest (AID 449756); type: functional, cell-based; conditions: Rattus norvegicus;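 note: cell death triggered by IL-1 beta plus TNF-alpha plus IFN-gamma mixture; protective hits raise ATP signal compared with cytokine alone wells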
[11] = biological target: Fructose-bisphosphate aldolase (Mycobacterium tuberculosis, UniProt P9WQA3); test: Fluorescence-based biochemical high throughput dose response assay for inhibitors of the fructose-bisphosphate aldolase (FBA) of M. tuberculosis.; type: functional
[12] = A549 cell cytotoxicity, dose response, cytotoxicity control, plate reader, cherry-pick, antagonist series (AID 743412); type: functional, cell-based
[13] = LGR2 antagonists, dose response, cell-based, HEK293, CRE-luciferase reporter, cherry pick, set 2 (AID 743343); type: functional;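 note: transfected cells were stimulated with diluted bursicon conditioned medium after compound addition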
[14] = MC4R antagonists, dose response, counter-screen for LGR2 antagonist project, cell-based, plate reader, cherry pick (AID 743444); type: functional;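 note: transfected HEK 293 cells stimulated with alpha-MSH peptide; potency of inhibitors of the alpha-MSH evoked signal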
[15] = biological target: Disintegrin and metalloproteinase domain-containing protein 17 (Homo sapiens, UniProt P78536); test: exosite inhibitors of ADAM17, dose response, biochemical (AID 743260)
[16] = ADAM10 protease inhibitors, dose response, selectivity assay for ADAM17 exosite inhibitor project, biochemical, FRET peptide substrate, recombinant human ADAM10 (AID 743259);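 note: ADAM10 enzyme cleaving a FRET peptide substrate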
HeLa = test: HeLa cell cytotoxicity, dose response, cytotoxicity control, ATP luminescence, cherry-pick samples (AID 687004); type: functional, cell-based; conditions: Homo sapiens
[17] = T. cruzi growth inhibition in host cells, dose response, cell-based, plate reader, dry powder, set 2 (AID 652275); type: functional
[18] = biological target: T4, Oxysterols receptor LXR-beta (Homo sapiens, UniProt P55055); type: functional, cell-based;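 note: agonist activity at LXR measured by a cell-based luminescence readout across a dose range, run as a counterscreen for daf-12 agonists; HEK293 cells with Gal4-LXR fusion and GAL4-driven luciferase reporter; potency for activation of Gal4-LXR reporter so compounds are agonists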
T4 sequence (P55055 whole entry): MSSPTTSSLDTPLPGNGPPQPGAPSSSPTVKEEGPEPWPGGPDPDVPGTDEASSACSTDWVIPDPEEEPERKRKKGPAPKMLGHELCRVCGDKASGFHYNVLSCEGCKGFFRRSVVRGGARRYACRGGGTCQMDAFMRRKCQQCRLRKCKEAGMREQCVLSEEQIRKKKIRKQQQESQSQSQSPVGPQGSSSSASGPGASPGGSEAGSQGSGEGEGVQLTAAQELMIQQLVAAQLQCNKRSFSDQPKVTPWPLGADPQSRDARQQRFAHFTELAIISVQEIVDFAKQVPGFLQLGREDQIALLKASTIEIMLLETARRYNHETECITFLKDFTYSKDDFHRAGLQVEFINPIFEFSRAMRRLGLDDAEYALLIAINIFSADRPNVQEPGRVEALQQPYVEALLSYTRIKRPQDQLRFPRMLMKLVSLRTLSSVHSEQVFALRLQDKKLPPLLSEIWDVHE

[19] = HepG2 cell cytotoxicity, dose response, cytotoxicity control, plate reader, cherry-pick, antagonist series (AID 743416); type: functional, cell-based
[20] = biological target: Metabotropic glutamate receptor 3 (Rattus norvegicus, UniProt P31422); test: mGlu3 NAM potency via calcium readout, dose response, mGlu3 NAM project, TREx293 cells, Galpha15, calcium flux (AID 651840); type: functional
Sequence of Metabotropic glutamate receptor 3 (P31422 whole entry): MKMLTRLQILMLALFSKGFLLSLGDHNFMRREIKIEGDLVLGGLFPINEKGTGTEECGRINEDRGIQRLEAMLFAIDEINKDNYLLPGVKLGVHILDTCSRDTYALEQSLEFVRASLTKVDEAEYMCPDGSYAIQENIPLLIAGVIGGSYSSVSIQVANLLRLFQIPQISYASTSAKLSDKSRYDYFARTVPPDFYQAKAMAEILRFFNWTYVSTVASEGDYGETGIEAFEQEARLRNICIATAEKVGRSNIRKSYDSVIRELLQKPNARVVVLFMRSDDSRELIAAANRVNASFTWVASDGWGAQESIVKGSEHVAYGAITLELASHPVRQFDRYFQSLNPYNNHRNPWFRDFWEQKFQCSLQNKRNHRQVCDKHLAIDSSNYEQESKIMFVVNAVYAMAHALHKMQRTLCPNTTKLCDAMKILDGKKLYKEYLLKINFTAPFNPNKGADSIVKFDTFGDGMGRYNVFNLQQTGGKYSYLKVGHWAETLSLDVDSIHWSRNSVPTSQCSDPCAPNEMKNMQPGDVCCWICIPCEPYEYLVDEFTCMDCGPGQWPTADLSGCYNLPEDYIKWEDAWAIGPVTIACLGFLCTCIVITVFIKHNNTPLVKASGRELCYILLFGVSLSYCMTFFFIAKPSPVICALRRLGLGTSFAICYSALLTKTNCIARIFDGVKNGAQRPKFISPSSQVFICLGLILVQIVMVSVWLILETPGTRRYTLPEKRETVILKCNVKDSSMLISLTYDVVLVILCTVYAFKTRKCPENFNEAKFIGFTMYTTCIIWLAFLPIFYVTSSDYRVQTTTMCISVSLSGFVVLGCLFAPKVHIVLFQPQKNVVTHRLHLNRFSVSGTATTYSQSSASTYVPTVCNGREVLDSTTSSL

Sequence of Fructose-bisphosphate aldolase (P9WQA3 whole entry): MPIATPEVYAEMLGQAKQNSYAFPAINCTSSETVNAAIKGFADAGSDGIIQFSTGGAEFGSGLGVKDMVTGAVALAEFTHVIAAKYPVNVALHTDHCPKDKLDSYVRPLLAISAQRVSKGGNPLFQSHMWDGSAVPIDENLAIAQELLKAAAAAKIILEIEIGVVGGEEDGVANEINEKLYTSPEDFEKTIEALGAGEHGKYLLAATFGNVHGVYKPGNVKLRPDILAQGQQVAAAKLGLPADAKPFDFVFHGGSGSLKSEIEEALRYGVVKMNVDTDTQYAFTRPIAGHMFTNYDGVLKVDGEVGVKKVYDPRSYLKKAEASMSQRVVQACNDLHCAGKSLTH
Sequence of Nonstructural protein 1 (Q194T2 whole entry): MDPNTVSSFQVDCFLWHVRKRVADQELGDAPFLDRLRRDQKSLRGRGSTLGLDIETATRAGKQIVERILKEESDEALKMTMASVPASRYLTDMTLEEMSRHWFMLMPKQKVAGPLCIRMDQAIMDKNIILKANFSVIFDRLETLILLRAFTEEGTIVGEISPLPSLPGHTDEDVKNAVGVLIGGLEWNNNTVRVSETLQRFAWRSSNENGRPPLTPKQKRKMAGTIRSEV
Sequence of Disintegrin and metalloproteinase domain-containing protein 17 (P78536 whole entry, the tested form may be a part): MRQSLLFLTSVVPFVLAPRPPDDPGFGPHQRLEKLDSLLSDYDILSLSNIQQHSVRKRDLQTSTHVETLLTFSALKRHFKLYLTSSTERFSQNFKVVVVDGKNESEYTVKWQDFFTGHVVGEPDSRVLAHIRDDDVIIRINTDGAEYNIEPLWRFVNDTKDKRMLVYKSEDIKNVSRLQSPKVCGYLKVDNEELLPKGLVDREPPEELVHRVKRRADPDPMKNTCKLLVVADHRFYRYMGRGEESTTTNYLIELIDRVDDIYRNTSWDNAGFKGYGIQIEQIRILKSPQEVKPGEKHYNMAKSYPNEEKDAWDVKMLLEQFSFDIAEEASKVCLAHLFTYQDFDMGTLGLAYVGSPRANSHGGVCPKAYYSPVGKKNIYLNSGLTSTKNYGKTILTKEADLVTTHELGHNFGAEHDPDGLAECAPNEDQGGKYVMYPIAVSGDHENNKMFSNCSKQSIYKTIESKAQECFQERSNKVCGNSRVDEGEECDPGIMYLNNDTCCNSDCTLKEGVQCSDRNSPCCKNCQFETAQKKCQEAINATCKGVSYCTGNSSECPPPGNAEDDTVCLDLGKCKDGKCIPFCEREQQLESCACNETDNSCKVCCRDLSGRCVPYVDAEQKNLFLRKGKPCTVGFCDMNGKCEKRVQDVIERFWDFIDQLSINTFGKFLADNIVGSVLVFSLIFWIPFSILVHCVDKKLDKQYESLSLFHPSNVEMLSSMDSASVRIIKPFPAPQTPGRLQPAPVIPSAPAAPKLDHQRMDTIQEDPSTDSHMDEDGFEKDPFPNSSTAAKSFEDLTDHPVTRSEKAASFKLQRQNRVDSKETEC

CCN1C(=O)/C(=C2/C=Cc3ccccc3N2CC)SC1=S
IC50 (Nonstructural protein 1): 9.45 µM (active) | IC50 [1]: 94.1 µM (inactive)

Cc1ccc(-c2cc(-c3ccc(C)cc3)[n+](-c3ccc(C(=O)[O-])cc3)c(-c3ccc(C)cc3)c2)cc1
EC50 [2]: > 120 µM (not active) | EC50 [3]: 12.6 µM (active) | EC50 (BJ [4]): 2.76 µM (active) | EC50 [5]: 63.5 µM (active) | EC50 [6]: > 120 µM (not active) | EC50 (Streptokinase A): > 150 µM (not active) | EC50 (BJ [7]): 13.6 µM (active) | EC50 (BJ [8]): 14.9 µM (inconclusive) | EC50 [9]: 8.62 µM (inconclusive) | EC50 (Streptococcus): > 150 µM (not active) | AC50 [10]: 38.2 µM (active) | EC50 (Protein RecA): 40.5 µM (active) | AC50 (INS1): 6.34 µM (active) | IC50 [11]: 1.86 µM (active)

O=C(Nc1ccc(NC(=O)c2ccco2)nc1)c1ccco1
AC50 [12]: > 52 µM (inactive) | AC50 [13]: 6.67 µM (active) | AC50 [14]: 8.62 µM (active)

O=C1CC(Nc2ccc3ccccc3c2)C(=O)N1Cc1ccccc1 (stereo not given)
IC50 [15]: > 69.5 µM (inactive) | IC50 [16]: > 69.5 µM (inactive)

CC(=O)c1sc(NC(=O)c2cc(-c3ccccc3)nn2-c2ccccc2)nc1C
AC50 (HeLa): > 52 µM (inactive)

CN(C)C(=O)c1cccc(-c2ccc([C@H]3[C@H](CO)N4CCCCN(Cc5cccnc5)C[C@@H]34)cc2)c1
AC50 [17]: 0.481 µM (active)

Cc1ccc(N/N=C(\C#N)C(=N)N2CCCCCC2)cc1
EC50 [18]: > 67.5 µM (inactive)

CC(C)NC(=O)Nc1ccc2c(c1)C(=O)N([C@@H](C)CO)C[C@H](C)[C@@H](CN(C)Cc1ccc3c(c1)OCO3)OCCCC[C@@H](C)O2
AC50 (HeLa): 19.5 µM (active)

Cc1ccc(-c2nc(-c3ccncc3)no2)cc1C
AC50 [19]: > 52 µM (inactive) | AC50 [13]: 17.8 µM (active) | AC50 [14]: 25.8 µM (active) | EC50 [18]: > 67.5 µM (inactive)

COc1ccc(C#Cc2ccc(C(=O)N3CCCC(C)(C)C3)cc2)cc1
IC50 [20]: 2.01 µM
